The values that follow come from patent US20260078119A1, “DEGRADER COMPOUNDS AND USES THEREOF” (Bristol-Myers Squibb Company, priority 2024, published 2026).

For one experiment, the target named is T1, FAK (Homo sapiens, UniProt Q05397).
T1 construct: homozygous knock-in of a HiBiT tag (Promega Corporation, Madison, WI) to the C-terminus of the FAK gene in its natural genomic locus; endogenous in cells; host or cells: JHH-4-FAK-HiBiT clone d01 (CRISPR-Cas9 knock-in at the endogenous locus)
Kind of experiment: FAK-HiBiT Degradation Assay. Format: cell-based. Conditions: for DC50: JHH-4-FAK-HiBiT clone d01 cells, two hours incubation, 10-point dose response, 3-fold dilution starting at 1 μM, Nano-Glo HiBiT luminescence, read-out: FAK HiBiT EC50; for FAK HiBiT Ymin: lower limit of the four parameter fit (value A), Ymax derived using DMSO control, JHH-4-FAK-HiBiT cells, two hours. The source says:
To generate JHH-4-FAK-HiBiT cells for the FAK degradation assay, JHH-4 cells (Japanese Collection of Research Biosources Cell Bank, Japan) were transfected with ribonucleoprotein reagents to introduce, by CRISPR-Cas9 editing, the homozygous knock-in of a HiBiT tag (Promega Corporation, Madison, WI) to the C-terminus of the FAK gene in its natural genomic locus. Clonal cell populations were established by expanding single cells after CRISPR-Cas9 editing, with a clonal cell line named JHH-4-FAK-HiBiT clone d01 confirmed by next generation DNA sequencing to contain the expected HiBiT edited FAK gene and was selected for FAK degradation screening. Cells were selected and maintained in complete DMEM media (DMEM, 10% Heat Inactivated FBS, and Non-Essential Amino Acids at 37° C. and 5% CO2). Cells were passaged every 3-4 days by reseeding 0.5×10^6 cells in a T75 flask.
Cells were dispensed into 384-well white plates (Corning #3570, NY) that were pre-spotted with compounds using an acoustic dispenser (Echo acoustic transfer system, Beckman Coulter Life Sciences, Carlsbad, CA) as a 10-point dose response curve with a 3-fold dilution starting at 1 μM and including a DMSO control. Twenty-five microliters of media containing 2000 JHH-4-FAK-HiBiT Clone d01 cells was dispensed per well. Assay plates were incubated at 37° C. with 5% CO2 for two hours. After incubation, 25 μL of Nano-Glo HiBiT Lytic Reagent Working Solution (Promega Corporation, Madison, WI) was added to each well and incubated at room temperature for 10 minutes protected from light. After 10 minutes, luminescence was read on a PHERAstar luminometer (BMG Labtech, Cary, NC).
To determine the half-maximal effective concentration (EC50) values for FAK-HiBIT degradation, a four parameter logistic model was used: (Sigmoidal Dose-Response Model)(FIT=(A+((B−A)/1+((C/x)^D)))) where C is the inflection point (EC50), D is the Hill slope, and A and B are the low and high limits of the fit respectively). The lower limit of the fit (value A) is referred to as Ymin. The maximum limit constraint, Ymax, was derived using DMSO control. The curves were processed and evaluated using Dotmatics Atlas (Insightful Science, LLC, Boston, MA).

In a further experiment the test system is CAL-51 cells. Kind of experiment: CAL-51 Cell Proliferation Assay. Conditions: for EC50: Homo sapiens, 120 hours incubation, 10-point dose response, 4-fold dilutions starting at 10 μM, Cell-Titer-Glo, read-out: CAL-51 Prolif EC50; for CAL-51 Prolif Ymin: minimal percent of DMSO control observed in the concentrations tested (Ymin-obs), 120 hours. The experiment is classed as cell-based. The text has this:
CAL-51 cells were obtained from Bristol Myers Squibb internal cell banks (originally sourced from DSMZ-German Collection of Microorganisms and Cell Cultures GmbH, Germany) and cultured in RPMI complete media (RPMI-1640, 10% Fetal Bovine serum, 1× Antibiotic-Antimycotic, and 1× Non-Essential Amino Acids). Compounds were dispensed into 384-well plates using an acoustic dispenser (Beckman Coulter Life Sciences, Carlsbad, CA) in duplicate with 14 compounds on each plate. For each compound, a 10-point dose response was printed at 4-fold dilutions starting at 10 μM. The DMSO concentration was kept constant for a final assay concentration of 0.1% per well assuming 50 uL final media volume. Compound plates were sealed and frozen at −20° C. until use.
For each assay batch, compound plates were thawed and allowed to reach room temperature, and cells were seeded at 350 cells per well in 50 μl complete RPMI media. After 120 hours of incubation at 37° C. and 5% CO2, cells were lysed by addition of 25 μL of Cell-Titer-Glo Reagent (Promega Corporation, Madison, WI), as per manufacturer's instructions, protected from light, shaken for 20 minutes, and total luminescence read by a CLARIOstar Plus plate reader (BMG LabTech, Cary, NC). Total luminescence signal is linearly correlated with cell number remaining in the well.
Luminescence data was processed per plate by subtracting reagent-only “blank” well luminescence from all measured values and calculating a percent of DMSO control value for each treatment well. Then, to determine the half-maximal effective concentration (EC50) values for cell growth inhibition, a four parameter logistic model was fit to the data for each DMSO-normalized compound: Sigmoidal Dose-Response Model: (FIT=(A+((B−A)/1+((C/x)^D)))) where C is the inflection point (EC50), D is the Hill slope, and A and B are the low and high limits of the fit respectively. The lower limit of the fit (value A) is referred to as Ymin-calculated. The minimal percent of DMSO control that is observed in the concentrations tested for each compound is labeled as “Ymin-obs”, and was recorded and reported in the tables. Sigmoidal fit curves were processed and evaluated using Dotmatics Atlas (Insightful Science, LLC, Boston, MA).

T1 sequence (Q05397 whole entry): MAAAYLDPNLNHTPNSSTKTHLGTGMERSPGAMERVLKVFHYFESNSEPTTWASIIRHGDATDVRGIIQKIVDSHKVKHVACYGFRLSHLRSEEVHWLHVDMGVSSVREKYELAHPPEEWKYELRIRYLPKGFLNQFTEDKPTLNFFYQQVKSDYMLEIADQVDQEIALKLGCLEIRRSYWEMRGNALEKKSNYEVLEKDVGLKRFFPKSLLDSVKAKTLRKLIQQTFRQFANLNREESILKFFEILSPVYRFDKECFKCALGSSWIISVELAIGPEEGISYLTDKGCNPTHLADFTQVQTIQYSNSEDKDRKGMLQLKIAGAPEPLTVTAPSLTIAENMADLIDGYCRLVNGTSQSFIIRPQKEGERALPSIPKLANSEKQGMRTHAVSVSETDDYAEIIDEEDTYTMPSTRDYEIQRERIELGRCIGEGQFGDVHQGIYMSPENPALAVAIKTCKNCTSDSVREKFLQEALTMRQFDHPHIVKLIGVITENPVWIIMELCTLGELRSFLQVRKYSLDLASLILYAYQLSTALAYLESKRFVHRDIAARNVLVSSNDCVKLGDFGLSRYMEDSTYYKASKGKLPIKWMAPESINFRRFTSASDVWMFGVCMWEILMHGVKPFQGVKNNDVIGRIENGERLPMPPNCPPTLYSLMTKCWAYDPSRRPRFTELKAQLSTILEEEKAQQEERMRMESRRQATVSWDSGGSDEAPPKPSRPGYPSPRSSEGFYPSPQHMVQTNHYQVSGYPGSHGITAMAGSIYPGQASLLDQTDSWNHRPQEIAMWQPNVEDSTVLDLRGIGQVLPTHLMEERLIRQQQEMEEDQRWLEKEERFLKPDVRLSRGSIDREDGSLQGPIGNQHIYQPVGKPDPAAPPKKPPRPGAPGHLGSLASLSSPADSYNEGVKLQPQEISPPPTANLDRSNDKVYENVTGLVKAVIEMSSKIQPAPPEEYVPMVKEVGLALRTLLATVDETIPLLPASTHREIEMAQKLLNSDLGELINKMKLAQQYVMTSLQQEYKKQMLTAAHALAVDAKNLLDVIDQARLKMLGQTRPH

The EC50 is the midpoint of the concentration-response curve. Regarding `CN1CCN(c2cc(-c3ncc(C(F)(F)F)cc3Cl)c3cnn(Cc4ccc5c(c4)CN([C@H]4CCC(=O)NC4=O)C5=O)c3n2)CC1` [Example 136, (3S)-3-[5-({4-[3-chloro-5-(trifluoromethyl)pyridin-2-yl]-6-(4-methylpiperazin-1-yl)-1H-pyrazolo[3,4-b]pyridin-1-yl}methyl)-1-oxo-2,3-dihydro-1H-isoindol-2-yl]piperidine-2,6-dione], on FAK, the DC50 is no less than 1000 nM and the “FAK HiBiT Ymin” value is recorded as 96.76. In the experiment with CAL-51 cells, the EC50 is no less than 10000 nM and the “CAL-51 Prolif Ymin” value was found to be 95.61.
Taken in the same sequence, the figures for `Cc1nc2c(-c3ncc(C(F)(F)F)cc3Cl)cc(N3CC(F)C3)nc2n1Cc1ccc2c(c1)CN(C1CCC(=O)NC1=O)C2=O` (stereo not shown) [Example 21, 3-(5-((7-(3-chloro-5-(trifluoromethyl)pyridin-2-yl)-5-(3-fluoroazetidin-1-yl)-2-methyl-3H-imidazo[4,5-b]pyridin-3-yl)methyl)-1-oxoisoindolin-2-yl)piperidine-2,6-dione] were 1.54 nM, 9.84, 0.91 nM and 23.08.
With `O=C1CC[C@H](N2Cc3cc(Cn4ncc5c(-c6ncc(OC(F)(F)F)cc6Cl)cc(N6CC(F)C6)nc54)ccc3C2=O)C(=O)N1` [Example 7, (S)-3-(5-((4-(3-chloro-5-(trifluoromethoxy)pyridin-2-yl)-6-(3-fluoroazetidin-1-yl)-1H-pyrazolo[3,4-b]pyridin-1-yl)methyl)-1-oxoisoindolin-2-yl)piperidine-2,6-dione], on FAK, the DC50 worked out at 0.57 nM and the “FAK HiBiT Ymin” value is on record as 8.83. In addition, in the experiment with CAL-51 cells, the EC50 was 0.36 nM and the “CAL-51 Prolif Ymin” value was 21.87.
Taken in the same sequence, the figures for `O=C1CC[C@H](N2Cc3cc(Cn4ncc5c(-c6ncc(C(F)(F)F)cc6Cl)cc(N6CC[C@H](CCO)C6)nc54)ccc3C2=O)C(=O)N1` [Example 145, (S)-3-(5-((4-(3-chloro-5-(trifluoromethyl)pyridin-2-yl)-6-((R)-3-(2-hydroxyethyl)pyrrolidin-1-yl)-1H-pyrazolo[3,4-b]pyridin-1-yl)methyl)-1-oxoisoindolin-2-yl)piperidine-2,6-dione] were 51.9 nM, 47.34, 74.8 nM and 66.44.
Taken in the same sequence, the figures for `O=C1CCC(N2Cc3cc(Cn4ncc5c(-c6ncccc6Cl)c(F)c(N6CC(F)C6)nc54)ccc3C2=O)C(=O)N1` (stereo not shown) [Example 36, 3-(5-{[4-(3-chloropyridin-2-yl)-5-fluoro-6-(3-fluoroazetidin-1-yl)-1H-pyrazolo[3,4-b]pyridin-1-yl]methyl}-1-oxo-2,3-dihydro-1H-isoindol-2-yl)piperidine-2,6-dione] were 0.98 nM, 8.36, 0.5 nM and 24.38.
Taken in the same sequence, the figures for `O=C1CC[C@H](N2Cc3cc(Cn4ncc5c(-c6ncc(Cl)cc6F)cc(N6CC(F)C6)nc54)ccc3C2=O)C(=O)N1` [Example 47, (3S)-3-(5-{[4-(5-chloro-3-fluoropyridin-2-yl)-6-(3-fluoroazetidin-1-yl)-1H-pyrazolo[3,4-b]pyridin-1-yl]methyl}-1-oxo-2,3-dihydro-1H-isoindol-2-yl)piperidine-2,6-dione] were 1.8 nM, 17.06, 1.96 nM and 39.85.
Regarding `CC(C)Oc1cnc(-c2cc(N3CC(F)C3)nc3c2cnn3Cc2ccc3c(c2)CN([C@H]2CCC(=O)NC2=O)C3=O)c(Cl)c1` [Example 54, (3S)-3-[5-({4-[3-chloro-5-(propan-2-yloxy)pyridin-2-yl]-6-(3-fluoroazetidin-1-yl)-1H-pyrazolo[3,4-b]pyridin-1-yl}methyl)-1-oxo-2,3-dihydro-1H-isoindol-2-yl]piperidine-2,6-dione], on FAK, the DC50 was found to be 2.47 nM and the “FAK HiBiT Ymin” value amounted to 6.69. Besides, in the experiment with CAL-51 cells, the EC50 was determined as 0.73 nM and the “CAL-51 Prolif Ymin” value is 25.81.
Consider `N#Cc1ccc(-c2cc(N3CCC3)nc3c2cnn3Cc2ccc3c(n2)CN(C2CCC(=O)NC2=O)C3=O)c(Cl)c1` (stereo not shown) [Example 101, 4-[6-(azetidin-1-yl)-1-{[6-(2,6-dioxopiperidin-3-yl)-5-oxo-5H,6H,7H-pyrrolo[3,4-b]pyridin-2-yl]methyl}-1H-pyrazolo[3,4-b]pyridin-4-yl]-3-chlorobenzonitrile], for which, on FAK, the DC50 came to 29.2 nM and the “FAK HiBiT Ymin” value amounted to 11.17.
Taken in the same sequence, the figures for `O=C1CCC(N2Cc3cc(Cn4ncc5c(-c6ccc(C7(O)CCOCC7)cn6)cc(N6CC(F)C6)nc54)ccc3C2=O)C(=O)N1` (stereo not shown) [Example 122, 3-(5-{[6-(3-fluoroazetidin-1-yl)-4-[5-(4-hydroxyoxan-4-yl)pyridin-2-yl]-1H-pyrazolo[3,4-b]pyridin-1-yl]methyl}-1-oxo-2,3-dihydro-1H-isoindol-2-yl)piperidine-2,6-dione] were 98.1 nM and 74.73.
Taken in the same sequence, the figures for `CC(C)Nc1cc(-c2ncc(C#N)cc2Cl)c2cnn(Cc3ccc4c(c3)CN(C3CCC(=O)NC3=O)C4=O)c2n1` (stereo not shown) [Example 103, 5-chloro-6-(1-{[2-(2,6-dioxopiperidin-3-yl)-1-oxo-2,3-dihydro-1H-isoindol-5-yl]methyl}-6-[(propan-2-yl)amino]-1H-pyrazolo[3,4-b]pyridin-4-yl)pyridine-3-carbonitrile] were 30.5 nM and 13.98.
Taken in the same sequence, the figures for `CC(C)Nc1cc(-c2ncccc2Cl)c2cnn(Cc3ccc4c(c3)CN(C3CCC(=O)NC3=O)C4=O)c2n1` (stereo not shown) [Example 117, 3-(5-{[4-(3-chloropyridin-2-yl)-6-[(propan-2-yl)amino]-1H-pyrazolo[3,4-b]pyridin-1-yl]methyl}-1-oxo-2,3-dihydro-1H-isoindol-2-yl)piperidine-2,6-dione] were 73.7 nM and 25.54.
In the case of `N#Cc1ccc(-c2cc(N3CCC3)nc3c2cnn3Cc2ccc3c(c2)CN(C2CCC(=O)NC2=O)C3=O)c(Cl)c1` (stereo not shown) [Example 58, 4-[6-(azetidin-1-yl)-1-{[2-(2,6-dioxopiperidin-3-yl)-1-oxo-2,3-dihydro-1H-isoindol-5-yl]methyl}-1H-pyrazolo[3,4-b]pyridin-4-yl]-3-chlorobenzonitrile], on FAK, the DC50 stood at 3.43 nM and the “FAK HiBiT Ymin” value is on record as 7.90.
Taken in the same sequence, the figures for `N#Cc1ccc(-c2cc(N3CCC3)nc3c2cnn3Cc2ccc3c(c2)CN(C2CCC(=O)NC2=O)C3=O)c(F)c1` (stereo not shown) [Example 62, 4-[6-(azetidin-1-yl)-1-{[2-(2,6-dioxopiperidin-3-yl)-1-oxo-2,3-dihydro-1H-isoindol-5-yl]methyl}-1H-pyrazolo[3,4-b]pyridin-4-yl]-3-fluorobenzonitrile] were 3.92 nM and 12.88.
